{
  "source": "paper PMC8894198",
  "about": "“Biosynthetic Microcin J25 Exerts Strong Antibacterial, Anti-Inflammatory Activities, Low Cytotoxicity Without Increasing Drug-Resistance to Bacteria Target” (Frontiers in Immunology, 2022)",
  "system": "E. coli LKFZ GZM4",
  "assay": "MIC/MBC, clinical isolate",
  "assay_type": "cell-based",
  "settings": "source pig stool",
  "description": "The minimum inhibitory concentration (MIC) refers to the lowest concentration that can produce a significant hindrance to bacterial growth in a drug sensitivity test by adopting a broth dilution, with certain refinements and modifications based on the previous description ([25], [26]). In short, MccJ25 was dissolved in sterilized distilled water (SDW), serial 2-fold dilutions were prepared in Mueller-Hinton broth (MHB) through a 96-well microtiter plate, and the final concentration of MccJ25 was maintained in the range of 0.003125 to 256 μg/mL. Then, 2 μL of standard and clinically relevant overnight broth cultures of bacteria were inoculated into each well at a concentration of 5 × 10^6 CFU/mL. Microtiter plates were incubated at 37°C for one full day. Two groups were set up: positive (medium with inoculum) and negative (medium only) controls. The minimum bactericidal concentration (MBC) was measured in LB medium and refers to the first drug dilution value at which the initial bacterial concentration was reduced by 99.99%. The final analysis was determined by the results of three replicated and independent experiments. To further assess and clarify the antimicrobial activity of MccJ25, the protective ability against E. coli adhesion, live/dead assay, and killing curve were performed, the detailed methods were provided in Supplementary Materials .",
  "note": "Where a SMILES comes first, the peptide text is derived from it. Bridges are numbered along the chain shown (N, C = ends).",
  "data": [
    {"smiles": "CC[C@H](C)[C@H](NC(=O)CNC(=O)[C@@H](NC(=O)[C@H](Cc1ccccc1)NC(=O)[C@H](Cc1ccc(O)cc1)NC(=O)[C@@H]1CCC(=O)NCC(=O)NCC(=O)N[C@@H](C)C(=O)NCC(=O)N[C@@H](Cc2c[nH]cn2)C(=O)N[C@@H](C(C)C)C(=O)N2CCC[C@H]2C(=O)N1)C(C)C)C(=O)NCC(=O)N[C@H](C(=O)N1CCC[C@H]1C(=O)N[C@H](C(=O)N[C@@H](CO)C(=O)N[C@@H](Cc1ccccc1)C(=O)N[C@@H](Cc1ccc(O)cc1)C(=O)NCC(=O)O)[C@@H](C)CC)[C@@H](C)O", "note": "[MccJ25, microcin J25] (GGAGHVPEYFVGIGTPISFYG-OH; lactam N-8 (inferred); C-terminus assumed)", "values": [
      {"measurement": "MBC", "setting": "LB medium, 99.99% reduction, three independent experiments", "result": 1.000, "unit": "µg/mL"},
      {"measurement": "MIC", "setting": "broth dilution in MHB, 37°C, three independent experiments", "result": 0.250, "unit": "µg/mL"},
      {"measurement": "MIC/MBC", "setting": "ratio", "result": 0.250}
    ]}
  ]
}
